The source of these data is patent US7635592B2, “Tissue engineering scaffolds promoting matrix protein production” (Rice University, priority 2000, dated 2009).

The test system of experiment [1] is Aortic smooth muscle cells. In words: Matrix production in the presence of ascorbic acid, aortic smooth muscle cells. Particulars: SMCs. It is filed as cell-based. The procedure:
(§1) Aortic smooth muscle cells and auricular chondrocytes were grown on tissue culture polystyrene with and without 50 μg/ml ascorbic acid added to the media. ECM protein production by the cells over a 2-day time period was determined by examining the amount of ^3H-glycine incorporated into the ECM elaborated by the cells.

The subject of experiment [2] is Auricular chondrocytes. In words: Matrix production in the presence of ascorbic acid, auricular chondrocytes. It is filed as cell-based. The protocol:
as §1

Experiment [3] deals with SMCs. In words: Matrix protein production on peptide-modified glass surfaces (3H-glycine incorporation into ECM). Particulars: for increase in matrix production per cell over that produced when no TGF-β was added: 0.04 pmol/ml (1 ng/ml) soluble TGF-β in the media, 2 days. It is filed as cell-based, Wistar-Kyoto rats. The source says:
(§2) Chemicals were obtained from Sigma Chemical Co. (St. Louis, Mo.) unless otherwise stated. SMCs from the thoracic aorta of Wistar-Kyoto rats were isolated and characterized as previously described by Scott-Burden, et al., Hypertension 13:295-305 (1989). Human aortic smooth muscle cells (HASMCs) were obtained from Clonetics (San Diego, Calif.). Both SMCs and HASMCs were maintained on Minimal Essential Medium Eagle supplemented with 10% fetal bovine serum (FBS; BioWhittaker, Walkersville, Md.), 2 mM L-glutamine, 500 units penicillin and 100 mg/l streptomycin (MEM). Cells were incubated at 37° C. in a 5% CO2 environment.
Peptides used in this study were RGDS (SEQ ID NO:1), VAPG (SEQ ID NO:2), and KQAGDV (SEQ ID NO:3) (Research Genetics, Huntsville, Ala.). RGES (SEQ ID NO:4) was used as a non-adhesive control peptide. The peptides were acetylated and coupled to aminophase glass slides as previously described by Mann, et al., Biomaterials 20:2281-2286 (1999). Briefly, aminophase slides were prepared by incubating glass slides with 3-aminopropyltriethoxysilane in dry acetone at 37° C. overnight. Acetylated peptides were then coupled to the slides using 1-ethyl-3-(3-dimethylaminopropyl) carbodiimide (EDAC) chemistry. Slides were sterilized under UV light overnight prior to use.
Matrix protein production was evaluated as previously described by Mann (1999). Suspensions of SMCs were prepared in MEM supplemented with 5 μg/ml ascorbic acid at a concentration of 40,000 cells/ml. For samples receiving TGF-β, 0.04 pmol/ml (1 ng/ml) unmodified TGF-β or 0.04 pmol/ml acryloyl-PEG-TGF-β was added to the media. Cell suspensions to be used for measurement of ECM protein production were also supplemented with 1 μCi/ml ^3H-glycine (40 Ci/mmol). The glass slides were attached to FlexiPerm strips in QuadriPerm Cell Culture Vessels (Heraeus, Osterode am Harz, Germany) to create eight wells (1.11×0.79×0.79 cm) on each slide. Four of the wells on each slide were utilized to measure ECM production, while the remaining four wells were utilized for cell number determination and were cultured in the absence of ^3H-glycine. Cell number was determined after 2 days of culture by preparing single cell suspensions using trypsin and counting cells using a Coulter counter (Multisizer #0646, Coulter Electronics, Hialeah, Fla.).
To evaluate synthesis of ECM proteins, the cell growth media was supplemented with ^3H-glycine, as described above. Two days following ^3H-glycine addition, cells were removed non-enzymatically with 25 mM ammonium hydroxide, then rinsed with 70% ethanol and dried. This process leaves intact the ECM elaborated by cells during culture (Jones, et al., Proc. natl. Acad. Sci. USA 76:353-357 (1979)). Sequential enzyme digestion was used as previously described by Mann (1999) to determine the gross composition of the ECM proteins. Briefly, the ECM was digested first with trypsin, followed by elastase, and then collagenase. After the final enzymatic digestion, any material remaining on the substrate was dissolved by incubation with 1 N NaOH. Aliquots were taken from each step of the digest for scintillation counting.

The test system of experiment [4] is SMCs. As to the kind of experiment: DNA and hydroxyproline determination in RGDS-containing PEG hydrogels seeded with SMCs. It is filed as cell-based, Wistar-Kyoto rats. Particulars: 0.04 pmol/ml, 7 days of culture.
Excerpt: as §2, with “environment. […]” for “environment.”
After 7 days of culture, hydrogels were removed from the culture media, weighed, and digested with 1 ml 0.1 N NaOH overnight at 37° C. […] DNA content of the digested, neutralized hydrogels was determined using a fluorescent DNA binding dye, Hoechst 33258 (Molecular Probes, Eugene, Oreg.). Fluorescence of the samples was determined using a fluorometer (VersaFluor, Bio-Rad Laboratories, Hercules, Calif.) with excitation filter at 360 nm and emission filter at 460 nm, and compared to fluorescence of calf thymus DNA standards.
Hydroxyproline concentration was determined by oxidation with chloramine T (ICN Biomedicals, Aurora, Ohio) and development with p-dimethylaminobenzaldehyde (ICN Biomedicals) (Woessner, et al. Arch. Biochem. Biophys. 93:440-447 (1961)). […]

The test system of experiment [5] is Aortic smooth muscle cells. In words: Dose response of aortic smooth muscle cells to TGF-β on RGDS-coupled aminophase glass. It is filed as cell-based. The protocol:
Aortic smooth muscle cells were grown on aminophase glass that had 0.5 nmol/cm^2 RGDS (SEQ ID NO:1) covalently coupled to the glass. TGF-β was added to the media at 0, 1, or 5 ng/ml (0, 4×10^−5, 2×10^−4 nmol/ml). ECM protein production by the cells over a 2-day time period was determined by examining the amount of ^3H-glycine incorporated into the ECM elaborated by the cells.

The subject of experiment [6] is Auricular chondrocytes. In words: Dose response of auricular chondrocytes to TGF-β on tissue culture polystyrene. It is filed as cell-based. The procedure:
Auricular chondrocytes were grown on tissue culture polystyrene with varying amounts of TGF-β added to the media: 0, 1, 5, 10, 25, or 100 ng/ml. ECM protein production by the cells over a 2-day time period was determined by examining the amount of ^3H-glycine incorporated into the ECM elaborated by the cells.

The mark [7] stands for this setting: 50 μg/ml ascorbic acid in the media, 2 days.
Where [8] appears, read: 50 μg/ml ascorbic acid, over 2 days.
[9] abbreviates: RGDS-modified glass surfaces, 0.04 pmol/ml in the media.

With `O=C1O[C@H]([C@@H](O)CO)C(O)=C1O` [ascorbic acid], the “ECM protein production per cell” value (in experiment [1] (setting [7]); with Auricular chondrocytes [2] (setting [7])) was “increased” throughout. In addition, the “cell numbers (proliferation)” value (in experiment [1] (setting [8]); in the experiment with Auricular chondrocytes [2] (setting [8])) was “did not increase” throughout.

In the case of “acryloyl-PEG-TGF-β [polymer-conjugated TGF-β]”, in the experiment on SMCs [3] (setting [9]), the “matrix production compared with absence of TGF-β” value is recorded as “greater amounts of matrix” and the “matrix production compared with unmodified TGF-β” value is “less matrix was produced”.

For transforming growth factor-beta [TGF-β], the “increase in matrix production per cell over that produced when no TGF-β was added” value in the experiment with SMCs [3] (KQAGDV surfaces) was 104%; in the experiment with SMCs [3] (RGDS surfaces), 224%; with SMCs [3] (VAPG surfaces), 20%. Further, the “matrix production compared with the non-adhesive control (RGES)” value in the experiment with SMCs [3] (RGDS and KQAGDV modified surfaces, 1 ng/ml TGF-β in the media) is “increased over that seen with the non-adhesive control”. Moreover, the “matrix production compared with absence of TGF-β” value in the experiment with SMCs [3] (setting [9]) is given as “greater amounts of matrix”. Moreover, the “hydroxyproline (collagen) production compared with no TGF-β” value with SMCs [4] is on record as “More hydroxyproline”. Further, the “cell numbers (proliferation)” value in experiment [5] (TGF-β 1 or 5 ng/ml, over 2 days) is “did not increase”; in the experiment on Auricular chondrocytes [6] (TGF-β up to 100 ng/ml, over 2 days), “did not increase”. The “ECM protein production per cell (% of control)” value in experiment [5] (TGF-β in the media at both 1 and 5 ng/ml, 2 days) is “increased”. The “optimal concentrations to induce ECM production” value in experiment [5] (aortic smooth muscle cells) is “one and five”. Also, in the experiment on Auricular chondrocytes [6] (TGF-β in the media at concentrations above 1 ng/ml, 2 days), the “ECM protein production per cell” value is given as “increased”. Further, the “optimal concentration for ECM protein production per cell” value in the experiment on Auricular chondrocytes [6] (auricular chondrocytes, 2 days) was 25 ng/mL.
